Results taken from article PMC6651555, “Cathepsin L Inhibitors with Activity against the Liver Fluke Identified From a Focus Library of Quinoxaline 1,4-di-N-Oxide Derivatives” (Molecules, 2019).
Entries after “also recorded” stand apart in the source; their conditions may differ.

Columns and labels:
FhCL1 [1] = biological target: T1, FhCL1 (Fasciola hepatica, UniProt Q7JNQ9); test: FhCL1 inhibition screening, IC50 and slow-binding (fluorogenic substrate Z-VLK-AMC); format: biochemical; details: read-out: %Inh FhCL1, 10 µM compound, 20 min preincubation, relative to enzyme alone; SD less than 10%
T1 construct: made in house; host or cells: Hansenula polymorpha (yeast)
T1 sequence (Q7JNQ9 entry or part of it): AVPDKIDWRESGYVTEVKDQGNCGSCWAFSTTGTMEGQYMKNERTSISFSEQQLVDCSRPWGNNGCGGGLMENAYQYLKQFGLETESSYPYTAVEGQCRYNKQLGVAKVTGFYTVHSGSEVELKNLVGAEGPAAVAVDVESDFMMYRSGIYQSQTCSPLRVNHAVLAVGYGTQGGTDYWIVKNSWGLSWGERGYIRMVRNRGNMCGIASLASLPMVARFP
Description: (§1) Each compound was completely dissolved in dimethylsulfoxide (DMSO) to a concentration of 10 mM to prepare the stock solutions. To evaluate the inhibition of FhCL1 and FhCL3 by quinoxaline 1,4-di-N-oxide derivatives, nanomolar concentrations of each enzyme was incubated with compounds at 10 μM. Briefly, each enzyme and compound were preincubated 20 min in a 96-well plate in 0.1 M sodium phosphate buffer pH 6, 1 mM DTT, and 1 mM EDTA at room temperature. The reaction was initiated by adding 20 μM of substrate and enzyme activity was measured by the increase in aminomethyl coumarin (AMC) fluorescence as peptide substrates were hydrolyzed (Z-VLK-AMC for FhCL1 and Tos-GPR-AMC for FhCL3), at an excitation wavelength of 340 nm and emission wavelength of 440 nm using a spectrofluorometer (Varioskan Thermo, Waltham, MA, USA). Enzyme activity was expressed as RFU/s (relative fluorescence units of AMC released per second). Each compound was tested in triplicate. A control reaction without enzymes was performed to check for the occurrence of non-catalyzed reactions between substrates and inhibitors and a spectrum from 300 to 450 nm wavelength was done for each quinoxaline 1,4-di-N-oxide derivative to verify that none of them had optical activity in the measurement range. The percentage of enzyme inhibition was calculated as 100 − (vi/vo) × 100, where vi and vo correspond to the initial rate of AMC fluorescence increase (RFU/s) with and without inhibitor, respectively.
(§2) To calculate the IC50 values, compounds were incubated with each enzyme at seven different concentrations; 0.625, 1.25, 2.5, 5, 10, 20, and 40 μM. Then, the enzyme activity was measured in a 96-well plate as described before. We plotted initial rates (RFU/s) versus log10 of inhibitor concentrations and obtained the IC50 values by fitting the data to a sigmoid curve. We also carried out slow-binding assays to evaluate the time-dependence of the inhibition. Each compound was incubated at 10 μM with the enzyme for increasing lengths of time; 3 to 120 min and the percentage of inhibition at each time point was determined as described before. We calculated the inhibition percentage of the leader compounds at 10 μM for HsCL1. The enzyme was preincubated for 20 min with the compounds and the activity was measured in a 96-well plate in 400 mM sodium acetate, pH 5.5, with 4 mM EDTA, 8 mM DTT, and 20 μM of substrate Z-VLK-AMC. The percentage of enzyme inhibition was calculated as described for FhCL1 and FhCL3. We determined the IC50 value for C17 against HsCL by incubating the enzyme with four different concentrations of the compound 0, 10, 25, and 50 μM and measuring the activity as described before. We plotted initial rates (RFU/s) versus log10 of inhibitor concentration and obtained the IC50 value by fitting the data to a sigmoid curve.

FhCL3 [2] = test: FhCL3 inhibition screening, IC50 and slow-binding (fluorogenic substrate Tos-GPR-AMC); format: biochemical, Fasciola hepatica; details: 10 µM compound, 20 min preincubation, relative to enzyme alone; SD less than 10%
Description: as §1, §2

F. hepatica NEJ [3] = test: In vitro culture of NEJ and treatment with inhibitors (motility score); format: cell-based, Fasciola hepatica; details: 50 μM compound, over 96 h
Description: F. hepatica metacercariae were acquired from Instituto Miguel C. Rubino (DILAVE, MGAP, Uruguay). NEJ were obtained by in vitro excystement as previously described with minor modifications. Briefly, metacercariae were incubated with 1% sodium hypochlorite for 5 min at room temperature to remove the outer cyst wall and then washed several times with PBS. Metacercariae activation was carried out in a medium prepared by mixing equal volumes of solution A (0.4% sodium taurocholate, 120 mM NaHCO3, 140 mM NaCl, pH 8.0) and solution B (50 mM HCl and 33 mM L-cysteine), and incubating at 39 °C until the NEJ begin to emerge (around 3–4 h). A 100 μm filter was used to retain the cyst wall. Collected NEJ were washed three times with RPMI-1640 supplemented with 200 U/mL Penicillin G sulfate, […] streptomycin sulfate, 500 ng/mL amphotericin B, 10 mM HEPES, counted and divided into groups of around 20 parasites that were transferred to 96 wells in tissue culture plates. Parasites were maintained at 37 °C, 5% CO2 in modified Basch’s medium. At day 1, each tested compound was added at a concentration of 50 μM in 0.5% DMSO. Also, 0.5% of DMSO was added to the control groups. Each condition was tested in duplicate. NEJ behavior was monitored under a light microscope (Olympus BX41, Hamburg, Germany), every day each well was recorded for a minute in order to assess parasite motility and registered using the following score: 3—normally active; 2—reduced activity (sporadic movement); 1—immotile (dead, adapted from). Control parasites were maintained in culture for seven days.

FhCL1 [4] = biological target: T1, FhCL1; test: FhCL1 inhibition screening, IC50 and slow-binding (fluorogenic substrate Z-VLK-AMC); format: biochemical; details: 10 μM, preincubation 5 to 120 min
human cathepsin L (HsCL) = human cathepsin L (HsCL) (Homo sapiens, UniProt P07711); test: Human cathepsin L (HsCL) inhibition, selectivity assessment; format: biochemical
Sequence of human cathepsin L (HsCL) (P07711 114-333): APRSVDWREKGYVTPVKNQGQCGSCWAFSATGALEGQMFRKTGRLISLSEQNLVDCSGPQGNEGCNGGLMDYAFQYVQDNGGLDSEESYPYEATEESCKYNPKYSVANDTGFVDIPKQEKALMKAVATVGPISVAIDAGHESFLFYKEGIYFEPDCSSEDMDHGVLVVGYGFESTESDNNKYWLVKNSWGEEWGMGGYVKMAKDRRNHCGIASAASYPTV
Description: as §2

HepG2 cell line = test: Cytotoxicity on the HepG2 cell line (Sulforhodamin B); format: cell-based; details: Homo sapiens, 24 h incubation with compound
Description: (§3) Cytotoxicity studies on the HepG2 cell line. Cells: 1.5 × 10^4 cells per 96-well plate were cultured in 225 µL of DMEM medium, supplemented with L-glutamine (1%), penicillin/streptomycin (1%), and 10% (v/v) fetal bovine serum (FBS). The cultures were maintained at 37 °C and 5% CO2 for 48 h. Treatment: Compound solutions were prepared just before dosing. Stock solutions, […], were prepared in 100% DMSO (Aldrich, Saint Louis, MO, USA) and 25 µL of adequate dilution was added to each well 24 h after plating the cells. For each compound, a dose-response curve was done with five different compound concentrations: 6.25, 12.5, 25, 50, and 100 µM (treated cells, T). No effect on cell growth was observed by the presence of 0.5% DMSO in the culture media (control cells, C). Cells were incubated with the compounds for 24 h at 37 °C in 5% CO2 atmosphere, then the medium was discarded and the cells were washed with PBS. The cells were then fixed with 50 µL of TCA (50%) and 200 µL of culture medium (without FBS) for 1 h at 4 °C. Then the cells were washed with purified water and treated with Sulforhodamin B (0.4% wt/vol in 1% acetic acid) for 10 min at room temperature. The plates were then washed with 1% acetic acid and dried overnight. Finally, 100 µL of Tris buffer (pH = 10.0) was added and absorbance read at 540 nm. Data calculations: The assays were done in four replicates. At the end of the experiment, the cell survival percentage (SP) was calculated for each compound as (T/C) × 100. To determine the IC50, the SP of cells at each compound concentration was plotted and the data were fitted to a sigmoid curve. The standard error was not greater than 10% for any condition. For the cytotoxicity assay with bovine spermatozoa, semen samples were obtained from a healthy fertile Hereford bull and kept frozen in 0.5 mL straws (extended in Andromed, Minitube, Tiefenbach, Germany) under liquid nitrogen until use. The semen used belonged to a single freezing batch that was obtained during a regular collection schedule with an artificial vagina. Samples from three straws were thawed and a sperm pool was prepared in PBS at a concentration of 80 million spermatozoa per ml. Then, 50 μL of this pool was carefully mixed with 50 μL of each compound to be tested at a concentration of 50 µM or 1% DMSO in control experiments. Each compound was assayed in triplicate in 96-well plates and controls were assayed in triplicate. Plates were incubated at 37 °C for 1 h with moderate shaking. The motility analysis was carried out using a CASA (Computer Assisted Semen Analyzer) system Androvision (Minitube, Tiefenbach, Germany) with an Olympus BX 41 microscope (Olympus, Japan) equipped with a warm-stage at 37 °C. Each sample (10 μL) was placed onto a Makler Counting Chamber (depth 10 μm, Sefi-Medical Instruments, Haifa, Israel) and the following parameters were evaluated: percentage of total motile spermatozoa (motility >5 μm/s) and velocity curved line (VCL > 24 μm/s). At least 400 spermatozoa were analyzed from each sample from at least four microscope fields.

bovine spermatozoa = test: Cytotoxicity assay with bovine spermatozoa (CASA motility); format: cell-based; details: 50 µM, 1 h at 37 °C, relative to control sperm incubated with vehicle
Description: as §3

F. hepatica NEJ [5] = test: In vitro culture of NEJ and treatment with inhibitors (motility score); format: cell-based; details: Fasciola hepatica; after 48 h of incubation with NEJ; read-out: IC50 against NEJ
FhCL3 [6] = test: FhCL3 inhibition screening, IC50 and slow-binding (fluorogenic substrate Tos-GPR-AMC); format: biochemical, Fasciola hepatica; details: 10 μM, preincubation 5 to 120 min

| SMILES | inhibition at 10 µM (FhCL1 [1]) [%] | %Inh FhCL3 (FhCL3 [2]) [%] | Effect on NEJ motility / fasciolicide activity in vitro (F. hepatica NEJ [3]) | Time-dependence of FhCL1 inhibition (slow-binding) (FhCL1 [4]) | IC50 (human cathepsin L (HsCL); dose-response at 0, 10, 25 and 50 μM) [µM] | Selectivity index FhCL1 (human cathepsin L (HsCL); parasite enzyme FhCL1 over human cathepsin L) | Selectivity index FhCL3 (human cathepsin L (HsCL); parasite enzyme FhCL3 over human cathepsin L) | IC50 (HepG2 cell line) [µM] | Sperm Motility RTC (relative to control) (bovine spermatozoa) | IC50 (F. hepatica NEJ [5]) [µM] | Time-dependence of FhCL3 inhibition (slow-binding) (FhCL3 [6]) |
| --- | --- | --- | --- | --- | --- | --- | --- | --- | --- | --- | --- |
| N#Cc1c(N)[n+]([O-])c2ccc(/C=N/NC(=O)NCCc3ccccc3)cc2[n+]1[O-] [Compound C7] | 90 | 61 | did not have activity against the parasites; also recorded: did not have fasciolicidal activity | required short times to inhibit FhCL1 enzyme |  |  |  |  |  |  |  |
| C=CCNC(=S)N/N=C/c1ccc2c(c1)[n+]([O-])c(C(=O)OCC)c(-c1ccccc1)[n+]2[O-] [Compound C17] | ≥ 80 |  | progressive decrease of parasite motility starting between 24 and 96 h of culture; also recorded: strong fasciolicide activity in vitro | required short times to inhibit FhCL1 enzyme | 13 | 9.3 | 2.6 | 48 ± 0.3 | 81 ± 3 | 25.1 |  |
| C=CCNC(=S)N/N=C/c1ccc2c(c1)[n+]([O-])c(-c1ccccc1)c(C(=O)Nc1ccccc1)[n+]2[O-] [Compound C23] | ≥ 80 |  | slightly affected parasite motility; also recorded: did not have fasciolicidal activity | required short times to inhibit FhCL1 enzyme |  |  |  | 12 ± 0.2 | 82 ± 1 |  | reached high inhibition of FhCL3 within a few minutes of incubation |
| CCOC(=O)c1c(-c2ccccc2)[n+]([O-])c2ccc(CN3CCN(C/C=C/c4ccccc4)CC3)cc2[n+]1[O-] [Compound C18] | 55 | 61 | progressive decrease of parasite motility starting between 24 and 96 h of culture; also recorded: strong fasciolicide activity in vitro |  |  |  |  | < 6.2 | 82 ± 2 |  | reached high inhibition of FhCL3 within a few minutes of incubation |
